Reference: the supplement of paper PMC10307832

Legend:
Assay in all cases: relative viability (nuclei count vs DMSO), 5 days (fraction); higher = more cells survive
[1] = compound: Cn1cc(-c2cnc3ccc4ccc(CS(=O)(=O)NCc5ccccn5)cc4c(=O)c3c2)cn1 [MK-8033] + C[C@]1(O)C[C@@H](c2nc(-c3ccc4ccc(-c5ccccc5)nc4c3)c3c(N)nccn32)C1 [Linsitinib] (partner 1 µM)
In short: (§1)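 Lung cancer cell lines in 1536-well plates got either a single drug or a fixed anchor-drug dose together with five library-drug doses (not always all listed) in √10 steps, by pin tool, on the day after seeding. Nuclei were counted after 5 days, and relative viability is the treated-to-vehicle ratio of nuclei counts. Values are medians of duplicate plates.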

[2] = compound: Cn1cc(-c2cnc3ccc4ccc(CS(=O)(=O)NCc5ccccn5)cc4c(=O)c3c2)cn1 [MK-8033] + CC1(C)CCC(c2ccc(Cl)cc2)=C(CN2CCN(c3ccc(C(=O)NS(=O)(=O)c4ccc(N[C@H](CCN5CCOCC5)CSc5ccccc5)c(S(=O)(=O)C(F)(F)F)c4)cc3)CC2)C1 [Navitoclax] (partner 0.5 µM)
In short: as §1

[3] = compound: CC[C@@H](C)CNCC(=O)N1CCC2=C([C@@H]1COC3=CC=CC(=C3)C)C=CS2 [RU-SKI 43] + CS(=O)(=O)N1CCN(Cc2cc3nc(-c4cccc5[nH]ncc45)nc(N4CCOCC4)c3s2)CC1 [Pictilisib] (partner 1 µM)
In short: as §1

[4] = compound: CC[C@@H](C)CNCC(=O)N1CCC2=C([C@@H]1COC3=CC=CC(=C3)C)C=CS2 [RU-SKI 43] + CC(=O)c1c(C)c2cnc(Nc3ccc(N4CCNCC4)cn3)nc2n(C2CCCC2)c1=O [Palbociclib] (partner 0.5 µM)
In short: as §1

| Cell Line | relative viability ([1]; first compound 0.02 µM) | relative viability ([1]; first compound 0.06325 µM) | relative viability ([1]; first compound 0.2 µM) | relative viability ([1]; first compound 0.6325 µM) | relative viability ([1]; first compound 2 µM) | relative viability ([2]; first compound 0.02 µM) | relative viability ([2]; first compound 0.06325 µM) | relative viability ([2]; first compound 0.2 µM) | relative viability ([2]; first compound 0.6325 µM) | relative viability ([2]; first compound 2 µM) | relative viability ([3]; first compound 0.1 µM) | relative viability ([3]; first compound 0.3162 µM) | relative viability ([3]; first compound 1 µM) | relative viability ([3]; first compound 3.162 µM) | relative viability ([3]; first compound 10 µM) | relative viability ([4]; first compound 0.1 µM) | relative viability ([4]; first compound 0.3162 µM) | relative viability ([4]; first compound 1 µM) | relative viability ([4]; first compound 3.162 µM) | relative viability ([4]; first compound 10 µM) |
| --- | --- | --- | --- | --- | --- | --- | --- | --- | --- | --- | --- | --- | --- | --- | --- | --- | --- | --- | --- | --- |
| NCI-H1666 | 0.872 | 0.754 | 0.83 | 0.66 | 0.81 | 0.959 | 0.852 | 0.951 | 1.1 | 0.924 | 0.407 | 0.481 | 0.377 | 0.331 | 0.2 | 0.66 | 0.63 | 0.707 | 0.609 | 0.64 |
| HARA | 0.779 | 0.78 | 0.893 | 1.03 | 0.897 | 1.1 | 1.14 | 1.15 | 1.1 | 1.16 | 0.524 | 0.512 | 0.435 | 0.458 | 0.318 | 0.233 | 0.205 | 0.281 | 0.28 | 0.233 |
| NCI-H661 | 0.55 | 0.5 | 0.53 | 0.59 | 0.507 | – | – | – | – | – | 0.432 | 0.409 | 0.484 | 0.355 | 0.414 | 0.384 | 0.398 | 0.401 | 0.348 | 0.344 |
| NCI-H2087 | 1.15 | 0.973 | 0.832 | 0.91 | 0.915 | 1.1 | 0.877 | 0.916 | 1 | 1.05 | 0.797 | 0.992 | 1.16 | 0.992 | 0.944 | 0.253 | 0.215 | 0.288 | 0.238 | 0.19 |
| LC-2-ad | 0.82 | 0.75 | 0.796 | 0.822 | 0.795 | 0.519 | 0.328 | 0.398 | 0.383 | 0.413 | 0.404 | 0.601 | 0.562 | 0.438 | 0.358 | 0.509 | 0.579 | 0.532 | 0.514 | 0.445 |
| NCI-H2405 | 0.882 | 0.91 | 0.783 | 0.831 | 0.957 | 0.825 | 0.727 | 0.733 | 0.847 | 0.933 | 0.393 | 0.34 | 0.436 | 0.472 | 0.333 | 0.504 | 0.603 | 0.551 | 0.576 | 0.503 |
| HCC-44 | 0.615 | 0.661 | 0.617 | 0.654 | 0.688 | 0.874 | 0.911 | 0.912 | 0.963 | 0.899 | 0.668 | 0.504 | 0.77 | 0.675 | 0.566 | 0.942 | 0.987 | 0.97 | 1.03 | 0.953 |
| NCI-H3122 | 1.01 | 1.04 | 0.993 | 1.04 | 1.02 | 1.03 | 1 | 1.03 | 1.01 | 1.05 | 0.644 | 0.543 | 0.641 | 0.559 | 0.578 | 0.193 | 0.166 | 0.185 | 0.182 | 0.166 |
| LU99A | 0.541 | 0.517 | 0.537 | 0.479 | 0.478 | 0.751 | 0.667 | 0.794 | 0.819 | 0.593 | 0.312 | 0.304 | 0.321 | 0.333 | 0.292 | 0.376 | 0.442 | 0.53 | 0.399 | 0.387 |
| ABC-1 | 0.744 | 0.791 | 0.676 | 0.829 | 0.657 | – | – | – | – | – | 0.676 | 0.842 | 0.753 | 0.701 | 0.772 | 0.517 | 0.824 | 0.719 | 0.866 | 0.636 |
| H3255 | 1.03 | 0.815 | 0.903 | 0.991 | 0.826 | 0.577 | 0.446 | 0.441 | 0.418 | 0.485 | 0.435 | 0.412 | 0.512 | 0.494 | 0.455 | 0.313 | 0.316 | 0.331 | 0.32 | 0.301 |
| HCC-827 | 0.957 | – | 0.947 | 0.968 | 0.948 | 0.963 | – | 0.939 | 0.918 | 0.984 | 0.994 | 0.97 | 1.19 | 1.05 | 0.94 | 0.474 | 0.414 | 0.56 | 0.498 | 0.427 |
| NCI-H1734 | 0.904 | 0.769 | 0.852 | 0.93 | 0.858 | 0.811 | 0.818 | 0.763 | 0.878 | 0.837 | 0.467 | 0.585 | 0.459 | 0.454 | 0.431 | 0.351 | 0.323 | 0.358 | 0.325 | 0.298 |
| EBC-1 | 0.938 | 0.68 | 0.895 | 1.05 | 0.167 | 0.428 | 0.383 | 0.474 | 0.404 | 0.13 | 0.345 | 0.283 | 0.429 | 0.316 | 0.196 | – | – | – | – | – |
| NCI-H838 | 0.988 | 0.98 | 0.985 | 0.98 | 0.953 | 1.13 | 1.14 | 1.01 | 1.22 | 1.08 | 0.471 | 0.434 | 0.544 | 0.444 | 0.445 | 0.213 | 0.233 | 0.225 | 0.239 | 0.188 |
| NCI-H1437 | 0.976 | 1.01 | 0.94 | 1.01 | 0.917 | 1.03 | 1.03 | 1.01 | 1 | 0.953 | 0.438 | 0.529 | 0.432 | 0.465 | 0.446 | 0.32 | 0.294 | 0.348 | 0.31 | 0.246 |
| NCI-H1915 | 1.12 | 1.07 | 1.09 | 1.08 | 1.15 | 0.812 | 0.699 | 0.801 | 0.811 | 0.783 | 1.02 | 0.954 | 1.03 | 0.961 | 0.927 | 0.51 | 0.543 | 0.559 | 0.541 | 0.525 |
